The source of these data is PubChem BioAssay (NCI).

SMILES strings stand for the structures.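 These data come from cells grown in 96-well plates and exposed to compound for 48 hours at five concentrations. TGI marks complete inhibition of growth.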

Common to all, as to assay: NCI tumour cell line growth inhibition, 48 h
The subject of assay [1] is COLO 205 colon.
The subject of assay [2] is OVCAR-3 ovarian.
Assay [3] has as its system OVCAR-8 ovarian.
Assay [4] concerns NCI-H460 lung.
For assay [5], the system named is KM12 colon.
Assay [6] relates to UO-31 renal.
Assay [7] deals with 786-0 renal.
Assay [8] has as its system ACHN renal.
Assay [9] relates to MDA-MB-435.
The subject of assay [10] is PC-3 prostate.
For assay [11], the system named is HOP-62 NSCLC.
The subject of assay [12] is NCI-H522 lung.

On to `CCCCCCc1nn2c(-c3ccc(C)cc3)nnc2s1`, for which the TGI in assay [1], in [2], in assay [3], in assay [4], in assay [5] and in assay [6] was > 100 µM each time. Besides, the TGI in assay [7], in assay [8], in [9], in assay [10], in [11] and in [12] was > 100 µM in each case.
In the case of `COC(=O)C12CCC(C(=O)OC)(Cc3c(c4ccccc4n3S(=O)(=O)c3ccccc3)C1)C2=O` (configuration not stated), the TGI in assay [1], in assay [2], in assay [3], in [4], in [5] and in [6] was > 100 µM each time. For the same compound, the TGI in assay [7] is > 69.6 µM; in assay [8] it was > 100 µM; in assay [9] it was > 100 µM; in assay [10], > 100 µM; in [11] it was > 100 µM; in [12] it was 97.1 µM.
With `CCCCc1ccc(Nc2nc3c(ncn3C3OC(COC(C)=O)C(OC(C)=O)C3OC(C)=O)c(=O)[nH]2)cc1` (configuration not stated), the TGI in assay [1] is 37.7 µM; in assay [2], 31.6 µM; in assay [3], 34.7 µM; in assay [4], 32.7 µM; in [5], 35.2 µM; in assay [6], > 100 µM. Further, the TGI in assay [7] was 32 µM; in assay [8], > 100 µM; in assay [9] it was 34.5 µM; in assay [10], 48.1 µM; in [11] it was 35.5 µM; in assay [12] it was 32.8 µM.
Regarding `O=C1C(NS(=O)(=O)c2ccccc2)=C(n2cnc3ccccc32)C(=O)c2ccccc21`, the TGI in assay [1], in [2], in assay [3], in [4], in assay [5] and in assay [6] was > 100 µM throughout. The TGI in [7] is > 100 µM; in assay [8], > 100 µM; in [9] it was > 100 µM; in [10], > 100 µM; in assay [11], > 100 µM; in assay [12] it was 53.7 µM.
Take `CCCCC1Cc2cc(O)ccc2-c2n1c1cc(O)ccc1[n+]2C` (configuration not stated) (tested in a mixture with another compound): the TGI was 44.2 µM in assay [1]; 98.7 µM in assay [2]; > 100 µM in assay [3]; > 100 µM in [4]; > 100 µM in [5]; > 100 µM in [6]. The TGI is > 100 µM in assay [7]; 98.7 µM in assay [8]; 59.6 µM in assay [9]; > 100 µM in [10]; > 100 µM in assay [11]; > 47.4 µM in [12].
For the compound `CS(C)(=O)=N/C=C\C(=O)C(Cl)(Cl)Cl`, the TGI in assay [1], in assay [2], in assay [3], in [4], in assay [5] and in [6] was > 100 µM in each case. Besides, the TGI in assay [7], in assay [8], in assay [9], in assay [10], in assay [11] and in [12] was > 100 µM throughout.
